{"source": "patent US20110305748A1", "about": "(priority 2010, published 2011)", "test_system": "influenza", "parameters": "species or system mice", "details": "mouse, in vivo", "data": [{"substance": "GLA", "values": [{"measurement": "Th1 T cell responses (antigen-specific IgG2a titers and IFNγ production)", "result": "dramatic increase in antigen-specific IgG2a titers and IFNγ production"}]}]}
